Measurements from patent US9708314B2, “Heterocyclic amide compound” (NISSAN CHEMICAL INDUSTRIES, LTD., priority 2013, dated 2017).

Assays:
Assay type in all cases: in vivo
[1] = tested on: Echinochloa oryzacola Vasing.; assay: Test Example 1: herbicidal activity, application before weed generation in submerged conditions; settings: Application herbicide amount 320 g/ha; Seventeenth Table
Summary of the method: (§1)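 Pre-emergence application to water surface of submerged pots (4 cm depth, alluvial soil) on sowing day, with 2.5-leaf rice transplanted; emulsion diluted to g/ha rates. Grown in greenhouse at 25–30 °C; 0–5 herbicidal/crop-effect score after three weeks.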

[2] = tested on: Monochoria vaginalis; assay: as above; settings: Application herbicide amount 320 g/ha; Seventeenth Table
Summary of the method: as §1

[3] = tested on: Scirpus juncoides; assay: as above; settings: Application herbicide amount 320 g/ha; Seventeenth Table
Summary of the method: as §1

[4] = tested on: transplanted Oryza sativa; assay: Test Example 1: effect on crop, application before weed generation in submerged conditions; settings: Application herbicide amount 320 g/ha; Seventeenth Table
Summary of the method: as §1

[5] = tested on: Abutilon theophrasti; assay: Test Example 4: herbicidal effect by application to foliage (diluvial soil, plastic box); settings: application to foliage, application herbicide amount 320 g/ha
Summary of the method: (§2)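 Plants were grown in sterilized diluvial soil in a greenhouse at 25-30° C for 14 days, then sprayed on stems and leaves with water-diluted emulsion formulation at set rates in g/ha. Weed control and crop injury were scored 3 weeks after treatment on a 0-5 herbicidal-ratio scale, from 0 (≤5%) to 5 (≥90%).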

[6] = tested on: Alopecurus myosuroides; assay: as above; settings: application to foliage, application herbicide amount 320 g/ha
Summary of the method: as §2

[7] = tested on: Amaranthus retroflexus; assay: as above; settings: application to foliage, application herbicide amount 320 g/ha
Summary of the method: as §2

[8] = tested on: Apera spica-venti.; assay: as above; settings: application to foliage, application herbicide amount 320 g/ha
Summary of the method: as §2

[9] = tested on: Avena fatua; assay: as above; settings: application to foliage, application herbicide amount 320 g/ha
Summary of the method: as §2

[10] = tested on: Chenopodium album; assay: as above; settings: application to foliage, application herbicide amount 320 g/ha
Summary of the method: as §2

[11] = tested on: Digitaria ciliaris; assay: as above; settings: application to foliage, application herbicide amount 320 g/ha
Summary of the method: as §2

[12] = tested on: Echinochloa crus-galli var. crus-galli; assay: as above; settings: application to foliage, application herbicide amount 320 g/ha
Summary of the method: as §2

[13] = tested on: Galium spurium; assay: as above; settings: application to foliage, application herbicide amount 320 g/ha
Summary of the method: as §2

[14] = tested on: Lolium multiflorum Lam.; assay: as above; settings: application to foliage, application herbicide amount 320 g/ha
Summary of the method: as §2

[15] = tested on: Setaria viridis; assay: as above; settings: application to foliage, application herbicide amount 320 g/ha
Summary of the method: as §2

[16] = tested on: Stellaria media; assay: as above; settings: application to foliage, application herbicide amount 320 g/ha
Summary of the method: as §2

[17] = tested on: Veronica persica; assay: as above; settings: application to foliage, application herbicide amount 320 g/ha
Summary of the method: as §2

[18] = tested on: Beta vulgaris ssp. vulgaris; assay: Test Example 4: effect on crop by application to foliage (diluvial soil, plastic box); settings: application to foliage, application herbicide amount 320 g/ha
Summary of the method: as §2

[19] = tested on: Brassica campestris L.; assay: as above; settings: application to foliage, application herbicide amount 320 g/ha
Summary of the method: as §2

[20] = tested on: Glycine max; assay: as above; settings: application to foliage, application herbicide amount 320 g/ha
Summary of the method: as §2

[21] = tested on: Triticum aestivum; assay: as above; settings: application to foliage, application herbicide amount 320 g/ha
Summary of the method: as §2

[22] = tested on: Zea mays; assay: as above; settings: application to foliage, application herbicide amount 320 g/ha
Summary of the method: as §2

[23] = tested on: directly sowed Oryza sativa; assay: as above; settings: application to foliage, application herbicide amount 320 g/ha
Summary of the method: as §2

Structure (SMILES): CCCc1nnc2c(C(=O)Nc3nnnn3C)ccc(C(F)(F)F)n12 [2-019]
- A: Echinochloa oryzicola Vasing. (herbicidal effect grade) [1]: 5 (Herbicidal ratio of 90% or more (almost completely withered))
- C: Monochoria vaginalis (herbicidal effect grade) [2]: 4 (Herbicidal ratio of 70% or more and less than 90%)
- B: Scirpus juncoides (herbicidal effect grade) [3]: 5 (Herbicidal ratio of 90% or more (almost completely withered))
- a: transplanted Oryza sativa (effect on crop grade) [4]: 2 (Herbicidal ratio of 20% or more and less than 40%)
- M: herbicidal effect on Abutilon theophrasti [5]: 5 (Herbicidal ratio of 90% or more (almost completely withered))
- J: herbicidal effect on Alopecurus myosuroides [6]: 2 (Herbicidal ratio of 20% or more and less than 40%)
- N: herbicidal effect on Amaranthus retroflexus [7]: 5 (Herbicidal ratio of 90% or more (almost completely withered))
- L: herbicidal effect on Apera spica-venti. [8]: 4 (Herbicidal ratio of 70% or more and less than 90%)
- I: herbicidal effect on Avena fatua [9]: 3 (Herbicidal ratio of 40% or more and less than 70%)
- O: herbicidal effect on Chenopodium album [10]: 5 (Herbicidal ratio of 90% or more (almost completely withered))
- F: herbicidal effect on Digitaria ciliaris [11]: 5 (Herbicidal ratio of 90% or more (almost completely withered))
- H: herbicidal effect on Echinochloa crus-galli var. crus-galli [12]: 5 (Herbicidal ratio of 90% or more (almost completely withered))
- Q: herbicidal effect on Galium spurium [13]: 3 (Herbicidal ratio of 40% or more and less than 70%)
- K: herbicidal effect on Lolium multiflorum Lam. [14]: 2 (Herbicidal ratio of 20% or more and less than 40%)
- G: herbicidal effect on Setaria viridis [15]: 5 (Herbicidal ratio of 90% or more (almost completely withered))
- P: herbicidal effect on Stellaria media [16]: 5 (Herbicidal ratio of 90% or more (almost completely withered))
- R: herbicidal effect on Veronica persica [17]: 5 (Herbicidal ratio of 90% or more (almost completely withered))
- f: effect on crop, Beta vulgaris ssp. vulgaris [18]: 5 (Herbicidal ratio of 90% or more (almost completely withered))
- g: effect on crop, Brassica campestris L. [19]: 4 (Herbicidal ratio of 70% or more and less than 90%)
- d: effect on crop, Glycine max [20]: 4 (Herbicidal ratio of 70% or more and less than 90%)
- e: effect on crop, Triticum aestivum [21]: 3 (Herbicidal ratio of 40% or more and less than 70%)
- c: effect on crop, Zea mays [22]: 0 (Herbicidal ratio of 5% or less (almost no effect))
- b: effect on crop, directly sowed Oryza sativa [23]: 4 (Herbicidal ratio of 70% or more and less than 90%)

Structure (SMILES): Cn1nnnc1NC(=O)c1ccc(C(F)(F)F)n2c(COc3ccccc3)nnc12 [2-020]
- A: Echinochloa oryzicola Vasing. (herbicidal effect grade) [1]: 3 (Herbicidal ratio of 40% or more and less than 70%)
- C: Monochoria vaginalis (herbicidal effect grade) [2]: 2 (Herbicidal ratio of 20% or more and less than 40%)
- B: Scirpus juncoides (herbicidal effect grade) [3]: 2 (Herbicidal ratio of 20% or more and less than 40%)
- a: transplanted Oryza sativa (effect on crop grade) [4]: 1 (Herbicidal ratio of 5% or more and less than 20%)
- M: herbicidal effect on Abutilon theophrasti [5]: 5 (Herbicidal ratio of 90% or more (almost completely withered))
- J: herbicidal effect on Alopecurus myosuroides [6]: 0 (Herbicidal ratio of 5% or less (almost no effect))
- N: herbicidal effect on Amaranthus retroflexus [7]: 4 (Herbicidal ratio of 70% or more and less than 90%)
- L: herbicidal effect on Apera spica-venti. [8]: 1 (Herbicidal ratio of 5% or more and less than 20%)
- I: herbicidal effect on Avena fatua [9]: 1 (Herbicidal ratio of 5% or more and less than 20%)
- O: herbicidal effect on Chenopodium album [10]: 5 (Herbicidal ratio of 90% or more (almost completely withered))
- F: herbicidal effect on Digitaria ciliaris [11]: 3 (Herbicidal ratio of 40% or more and less than 70%)
- H: herbicidal effect on Echinochloa crus-galli var. crus-galli [12]: 3 (Herbicidal ratio of 40% or more and less than 70%)
- Q: herbicidal effect on Galium spurium [13]: 2 (Herbicidal ratio of 20% or more and less than 40%)
- K: herbicidal effect on Lolium multiflorum Lam. [14]: 1 (Herbicidal ratio of 5% or more and less than 20%)
- G: herbicidal effect on Setaria viridis [15]: 3 (Herbicidal ratio of 40% or more and less than 70%)
- P: herbicidal effect on Stellaria media [16]: 4 (Herbicidal ratio of 70% or more and less than 90%)
- R: herbicidal effect on Veronica persica [17]: 4 (Herbicidal ratio of 70% or more and less than 90%)
- f: effect on crop, Beta vulgaris ssp. vulgaris [18]: 5 (Herbicidal ratio of 90% or more (almost completely withered))
- g: effect on crop, Brassica campestris L. [19]: 3 (Herbicidal ratio of 40% or more and less than 70%)
- d: effect on crop, Glycine max [20]: 3 (Herbicidal ratio of 40% or more and less than 70%)
- e: effect on crop, Triticum aestivum [21]: 1 (Herbicidal ratio of 5% or more and less than 20%)
- c: effect on crop, Zea mays [22]: 0 (Herbicidal ratio of 5% or less (almost no effect))
- b: effect on crop, directly sowed Oryza sativa [23]: 2 (Herbicidal ratio of 20% or more and less than 40%)

Structure (SMILES): Cn1nnnc1NC(=O)c1ccc(C(F)(F)F)n2c(C3CCCC3)nnc12 [2-021]
- A: Echinochloa oryzicola Vasing. (herbicidal effect grade) [1]: 5 (Herbicidal ratio of 90% or more (almost completely withered))
- C: Monochoria vaginalis (herbicidal effect grade) [2]: 5 (Herbicidal ratio of 90% or more (almost completely withered))
- B: Scirpus juncoides (herbicidal effect grade) [3]: 5 (Herbicidal ratio of 90% or more (almost completely withered))
- a: transplanted Oryza sativa (effect on crop grade) [4]: 4 (Herbicidal ratio of 70% or more and less than 90%)
- M: herbicidal effect on Abutilon theophrasti [5]: 5 (Herbicidal ratio of 90% or more (almost completely withered))
- J: herbicidal effect on Alopecurus myosuroides [6]: 3 (Herbicidal ratio of 40% or more and less than 70%)
- N: herbicidal effect on Amaranthus retroflexus [7]: 5 (Herbicidal ratio of 90% or more (almost completely withered))
- L: herbicidal effect on Apera spica-venti. [8]: 4 (Herbicidal ratio of 70% or more and less than 90%)
- I: herbicidal effect on Avena fatua [9]: 3 (Herbicidal ratio of 40% or more and less than 70%)
- O: herbicidal effect on Chenopodium album [10]: 5 (Herbicidal ratio of 90% or more (almost completely withered))
- F: herbicidal effect on Digitaria ciliaris [11]: 5 (Herbicidal ratio of 90% or more (almost completely withered))
- H: herbicidal effect on Echinochloa crus-galli var. crus-galli [12]: 5 (Herbicidal ratio of 90% or more (almost completely withered))
- Q: herbicidal effect on Galium spurium [13]: 4 (Herbicidal ratio of 70% or more and less than 90%)
- K: herbicidal effect on Lolium multiflorum Lam. [14]: 3 (Herbicidal ratio of 40% or more and less than 70%)
- G: herbicidal effect on Setaria viridis [15]: 5 (Herbicidal ratio of 90% or more (almost completely withered))
- P: herbicidal effect on Stellaria media [16]: 5 (Herbicidal ratio of 90% or more (almost completely withered))
- R: herbicidal effect on Veronica persica [17]: 5 (Herbicidal ratio of 90% or more (almost completely withered))
- f: effect on crop, Beta vulgaris ssp. vulgaris [18]: 5 (Herbicidal ratio of 90% or more (almost completely withered))
- g: effect on crop, Brassica campestris L. [19]: 4 (Herbicidal ratio of 70% or more and less than 90%)
- d: effect on crop, Glycine max [20]: 4 (Herbicidal ratio of 70% or more and less than 90%)
- e: effect on crop, Triticum aestivum [21]: 3 (Herbicidal ratio of 40% or more and less than 70%)
- c: effect on crop, Zea mays [22]: 0 (Herbicidal ratio of 5% or less (almost no effect))
- b: effect on crop, directly sowed Oryza sativa [23]: 4 (Herbicidal ratio of 70% or more and less than 90%)

Structure (SMILES): Cn1nnnc1NC(=O)c1ccc(C(F)(F)F)n2c(C3CCOC3)nnc12 (centres unmarked) [2-022]
- A: Echinochloa oryzicola Vasing. (herbicidal effect grade) [1]: 5 (Herbicidal ratio of 90% or more (almost completely withered))
- C: Monochoria vaginalis (herbicidal effect grade) [2]: 5 (Herbicidal ratio of 90% or more (almost completely withered))
- B: Scirpus juncoides (herbicidal effect grade) [3]: 5 (Herbicidal ratio of 90% or more (almost completely withered))
- a: transplanted Oryza sativa (effect on crop grade) [4]: 5 (Herbicidal ratio of 90% or more (almost completely withered))
- M: herbicidal effect on Abutilon theophrasti [5]: 5 (Herbicidal ratio of 90% or more (almost completely withered))
- J: herbicidal effect on Alopecurus myosuroides [6]: 3 (Herbicidal ratio of 40% or more and less than 70%)
- N: herbicidal effect on Amaranthus retroflexus [7]: 5 (Herbicidal ratio of 90% or more (almost completely withered))
- L: herbicidal effect on Apera spica-venti. [8]: 5 (Herbicidal ratio of 90% or more (almost completely withered))
- I: herbicidal effect on Avena fatua [9]: 4 (Herbicidal ratio of 70% or more and less than 90%)
- O: herbicidal effect on Chenopodium album [10]: 5 (Herbicidal ratio of 90% or more (almost completely withered))
- F: herbicidal effect on Digitaria ciliaris [11]: 4 (Herbicidal ratio of 70% or more and less than 90%)
- H: herbicidal effect on Echinochloa crus-galli var. crus-galli [12]: 5 (Herbicidal ratio of 90% or more (almost completely withered))
- Q: herbicidal effect on Galium spurium [13]: 4 (Herbicidal ratio of 70% or more and less than 90%)
- K: herbicidal effect on Lolium multiflorum Lam. [14]: 3 (Herbicidal ratio of 40% or more and less than 70%)
- G: herbicidal effect on Setaria viridis [15]: 5 (Herbicidal ratio of 90% or more (almost completely withered))
- P: herbicidal effect on Stellaria media [16]: 5 (Herbicidal ratio of 90% or more (almost completely withered))
- R: herbicidal effect on Veronica persica [17]: 5 (Herbicidal ratio of 90% or more (almost completely withered))
- f: effect on crop, Beta vulgaris ssp. vulgaris [18]: 5 (Herbicidal ratio of 90% or more (almost completely withered))
- g: effect on crop, Brassica campestris L. [19]: 5 (Herbicidal ratio of 90% or more (almost completely withered))
- d: effect on crop, Glycine max [20]: 5 (Herbicidal ratio of 90% or more (almost completely withered))
- e: effect on crop, Triticum aestivum [21]: 3 (Herbicidal ratio of 40% or more and less than 70%)
- c: effect on crop, Zea mays [22]: 1 (Herbicidal ratio of 5% or more and less than 20%)
- b: effect on crop, directly sowed Oryza sativa [23]: 5 (Herbicidal ratio of 90% or more (almost completely withered))
